According to patent US11730720B2, “ALK5 inhibitors” (THERAVANCE BIOPHARMA R&D IP, LLC, priority 2018, dated 2023):

Tests used:
[1] = target: T1, recombinant human ALK5 (TGF-βR1) protein (Homo sapiens, UniProt P36897); assay: Biochemical ALK5 (TGF-βR1) assay to measure pKi (LANCE Ultra ULight kinase assay); settings: apparent pKi, converted from pIC50 using the Cheng-Prusoff equation
T1 construct: purchased Life Technologies PR9075A
T1 sequence (P36897 34-503): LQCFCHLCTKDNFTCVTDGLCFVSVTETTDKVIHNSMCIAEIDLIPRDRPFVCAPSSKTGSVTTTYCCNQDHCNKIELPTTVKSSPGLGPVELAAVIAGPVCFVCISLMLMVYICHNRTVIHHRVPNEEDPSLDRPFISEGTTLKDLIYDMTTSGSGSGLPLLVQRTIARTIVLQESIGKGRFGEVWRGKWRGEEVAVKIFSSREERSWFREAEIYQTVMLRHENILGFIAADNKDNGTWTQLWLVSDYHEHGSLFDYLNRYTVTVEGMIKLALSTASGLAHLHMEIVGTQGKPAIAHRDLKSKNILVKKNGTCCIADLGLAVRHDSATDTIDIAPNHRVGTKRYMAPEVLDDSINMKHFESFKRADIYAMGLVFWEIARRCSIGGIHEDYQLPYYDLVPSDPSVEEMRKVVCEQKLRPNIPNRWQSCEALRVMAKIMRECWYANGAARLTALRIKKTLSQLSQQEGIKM
Method in brief: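 TR-FRET kinase format: compound dose range 10 μM–25 pM equilibrated 60 min with human ALK5 and ULight-labelled topoisomerase 2α peptide in HEPES/MgCl2 buffer pH 7.5 with DTT. Reaction started with ATP (125 μM stock, 5× final), 60 min at 37° C, stopped with EDTA/Eu-anti-phospho antibody; pKi derived from pIC50 via Cheng-Prusoff.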

[2] = system: TGF-β-stimulated SMAD3 phosphorylation in BEAS-2B cells; assay: Cellular ALK5 potency assay, inhibition of TGF-β stimulated pSMAD3 formation in BEAS-2B cells; assay type: cell-based; settings: Homo sapiens, inhibition of TGF-β (10 ng/mL) stimulated pSMAD3 formation, 1 hour compound incubation, read-out: BEAS2B pIC50 (converted)
Method in brief: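 Phospho-SMAD3 was quantified by AlphaLISA in lysates of human lung epithelial BEAS-2B cells. Compound was added 1 h (37 °C, HEPES/BSA-supplemented HBSS) before a 30 min challenge with 10 ng/mL TGF-β. Values are pIC50 relative to stimulated cells without compound.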

| SMILES | Ki [1] | IC50 [2] |
| --- | --- | --- |
| COCc1cccc(-c2[nH]cnc2-c2ccc3ncc(NCCN4CCN(C(C)C)CC4)cc3n2)c1 [Compound 15-2, N-[2-(4-isopropoylpiperazin-1-yl)ethyl]-6-[5-[3-(methoxymethyl)phenyl]-1H-imidazol-4-yl]-1,5-naphthyridin-3-amine] | 3.98 to 31.6 nM | 200 to 1260 nM |
| Fc1ccc(Cl)cc1-c1nc2ccccn2c1-c1ccc2ncc(-c3cnn(C4CCCNC4)c3)cc2c1 (stereo not drawn) [Compound 19-2, 6-[2-(5-chloro-2-fluoro-phenyl)imidazo[1,2-a]pyridin-3-yl]-3-[1-(3-piperidyl)pyrazol-4-yl]quinoline] | 0.0398 to 0.316 nM | 200 to 1260 nM |
| CN1CCC(N(C)c2cnc3ccc(-c4c[nH]nc4-c4cc(Cl)ccc4F)nc3c2)C1 (racemic) [Compound 1-79, 6-[3-(5-chloro-2-fluoro-phenyl)-1H-pyrazol-4-yl]-N-methyl-N-[rac-(3R)-1-methylpyrrolidin-3-yl]-1,5-naphthyridin-3-amine] | 0.0398 to 0.316 nM | ≤ 20 nM |
| CNCCn1ccc(-c2cnc3ccc(-c4nc[nH]c4-c4cc(Cl)ccc4F)nc3c2)n1 [Compound 2-16, 2-(3-(6-(5-(5-chloro-2-fluorophenyl)-1H-imidazol-4-yl)-1,5-naphthyridin-3-yl)-1H-pyrazol-1-yl)-N-methylethan-1-amine] | 0.0398 to 0.316 nM | 25.1 to 158 nM |
| CC(C)N1CCN(CCNc2cnc3ccc(-c4nc[nH]c4-c4cccc(Cl)c4)nc3c2)CC1 [Compound 29-1, 6-(5-(3-chlorophenyl)-1H-imidazol-4-yl)-N-(2-(4-isopropylpiperazin-1-yl)ethyl)-1,5-naphthyridin-3-amine] | 0.398 to 3.16 nM | ≤ 20 nM |
| Fc1ccc(-c2n[nH]cc2-c2ccc3ncc(-c4cn[nH]c4)cc3n2)c(F)c1 [Compound 10-1, 2-(3-(2,4-difluorophenyl)-1H-pyrazol-4-yl)-7-(1H-pyrazol-4-yl)-1,5-naphthyridine] | 0.0398 to 0.316 nM | ≤ 20 nM |
| Fc1ccc(Cl)cc1-c1[nH]cnc1-c1ccc2ncc(N3CCNCC3)cc2c1 [Compound 17-4, 6-(5-(5-chloro-2-fluorophenyl)-1H-imidazol-4-yl)-3-(piperazin-1-yl)quinoline] | 0.398 to 3.16 nM | 25.1 to 158 nM |
| CN1CCN(C2CCN(c3cnc4ccc(-c5nn[nH]c5-c5cc(Cl)ccc5F)cc4c3)CC2)CC1 [Compound 18-6, 6-[5-(5-chloro-2-fluoro-phenyl)-1H-triazol-4-yl]-3-[4-(4-methylpiperazin-1-yl)-1-piperidyl]quinoline] | 0.398 to 3.16 nM | 25.1 to 158 nM |
| Fc1cc(F)c(-c2n[nH]cc2-c2ccc3ncc(NCC4CCCNC4)cc3n2)cc1Cl (stereo not drawn) [Compound 6-66, 6-[3-(5-chloro-2,4-difluoro-phenyl)-1H-pyrazol-4-yl]-N-(3-piperidylmethyl)-1,5-naphthyridin-3-amine] | 0.398 to 3.16 nM | 200 to 1260 nM |
| CC(C)N1CC=C(c2cnc3ccc(-c4c[nH]nc4-c4ccc(F)c(F)c4)nc3c2)C1 [Compound 8-23, 2-[3-(3,4-difluorophenyl)-1H-pyrazol-4-yl]-7-(1-isopropyl-2,5-dihydropyrrol-3-yl)-1,5-naphthyridine] | 0.398 to 3.16 nM | 25.1 to 158 nM |
| Fc1ccc(Cl)cc1-c1nc2ccccn2c1-c1ccc2ncc(-c3cnn4c3CNCC4)cc2n1 [Compound 3-7, 2-[2-(5-chloro-2-fluoro-phenyl)imidazo[1,2-a]pyridin-3-yl]-7-(4,5,6,7-tetrahydropyrazolo[1,5-a]pyrazin-3-yl)-1,5-naphthyridine] | 0.0398 to 0.316 nM | 25.1 to 158 nM |
| Fc1ccc(Cl)cc1-c1n[nH]cc1-c1ccc2ncc(C3=CCNC3)cc2n1 [Compound 1-93, 2-[3-(5-chloro-2-fluoro-phenyl)-1H-pyrazol-4-yl]-7-(2,5-dihydro-1H-pyrrol-3-yl)-1,5-naphthyridine] | 0.0398 to 0.316 nM | ≤ 20 nM |
| CNCCn1cc(-c2cnc3ccc(-c4nc[nH]c4-c4cc(Cl)ccc4F)nc3c2)cn1 [Compound 2-19, 2-[4-[6-[5-(5-chloro-2-fluoro-phenyl)-1H-imidazol-4-yl]-1,5-naphthyridin-3-yl]pyrazol-1-yl]-N-methyl-ethanamine] | 0.0398 to 0.316 nM | 25.1 to 158 nM |
| OCCn1cc(-c2cnc3ccc(-c4c[nH]nc4-c4ccc(F)c(F)c4)nc3c2)cn1 [Compound 8-21, 2-(4-(6-(3-(3,4-difluorophenyl)-1H-pyrazol-4-yl)-1,5-naphthyridin-3-yl)-1H-pyrazol-1-yl)ethan-1-ol] | 0.0398 to 0.316 nM | ≤ 20 nM |
| CN1CC=C(c2nc3n(n2)CCN(c2cnc4ccc(-c5nc[nH]c5-c5cc(Cl)ccc5F)nc4c2)C3)C1 [Compound 2-15, 2-(5-(5-chloro-2-fluorophenyl)-1H-imidazol-4-yl)-7-(2-(1-methyl-2,5-dihydro-1H-pyrrol-3-yl)-5,6-dihydro-[1,2,4]triazolo[1,5-a]pyrazin-7(8H)-yl)-1,5-naphthyridine] | ≤ 0.0316 nM | 25.1 to 158 nM |
| CC(C)N1CCN(c2ccc(Nc3cnc4ccc(-c5nc[nH]c5-c5cc(Cl)ccc5F)nc4c3)nc2)CC1 [Compound 2-5, 6-(5-(5-chloro-2-fluorophenyl)-1H-imidazol-4-yl)-N-(5-(4-isopropylpiperazin-1-yl)pyridin-2-yl)-1,5-naphthyridin-3-amine] | 0.0398 to 0.316 nM | 25.1 to 158 nM |
| CCN1CCN(CCNc2cnc3ccc(-c4c[nH]nc4-c4cc(Cl)c(F)cc4F)nc3c2)CC1 [Compound 6-3, 6-[3-(5-chloro-2,4-difluoro-phenyl)-1H-pyrazol-4-yl]-N-[2-(4-ethylpiperazin-1-yl)ethyl]-1,5-naphthyridin-3-amine] | 0.0398 to 0.316 nM | ≤ 20 nM |
| Fc1ccc(Cl)cc1-c1n[nH]cc1-c1ccc2ncc(-c3ncc4n3CCN4)cc2n1 [Compound 1-129, 2-[3-(5-chloro-2-fluoro-phenyl)-1H-pyrazol-4-yl]-7-(2,3-dihydro-1H-imidazo[1,2-c]imidazol-5-yl)-1,5-naphthyridine] | 0.398 to 3.16 nM | 200 to 1260 nM |
| Fc1ccc(Cl)cc1-c1n[nH]cc1-c1ccc2ncc(-c3cn4c(n3)CNCC4)cc2n1 [Compound 1-116, 2-[3-(5-chloro-2-fluoro-phenyl)-1H-pyrazol-4-yl]-7-(5,6,7,8-tetrahydroimidazo[1,2-a]pyrazin-2-yl)-1,5-naphthyridine] | 0.0398 to 0.316 nM | 25.1 to 158 nM |
| Fc1ccc(Cl)cc1-c1n[nH]cc1-c1ccc2ncc(-c3cnc4n3CCNC4)cc2n1 [Compound 1-107, 2-[3-(5-chloro-2-fluoro-phenyl)-1H-pyrazol-4-yl]-7-(5,6,7,8-tetrahydroimidazo[1,2-a]pyrazin-3-yl)-1,5-naphthyridine] | 0.0398 to 0.316 nM | 25.1 to 158 nM |
| Fc1ccc(Cl)cc1-c1n[nH]cc1-c1ccc2ncc(NCC3CN4CCN3CC4)cc2n1 (stereo not drawn) [Compound 1-10, 6-[3-(5-chloro-2-fluoro-phenyl)-1H-pyrazol-4-yl]-N-(1,4-diazabicyclo[2.2.2]octan-2-ylmethyl)-1,5-naphthyridin-3-amine] | 0.0398 to 0.316 nM | ≤ 20 nM |
| NC1CCN(c2cnc3ccc(-c4c[nH]nc4-c4ccc(F)c(F)c4)nc3c2)C1 (stereo not drawn) [Compound 8-9, 1-[6-[3-(3,4-difluorophenyl)-1H-pyrazol-4-yl]-1,5-naphthyridin-3-yl]pyrrolidin-3-amine] | 0.398 to 3.16 nM | 25.1 to 158 nM |
| O=C(O)CC1CNCCN1c1cnc2ccc(-c3nc[nH]c3-c3cc(Cl)ccc3F)nc2c1 (stereo not drawn) [Compound 2-32, 2-[1-[6-[5-(5-chloro-2-fluoro-phenyl)-1H-imidazol-4-yl]-1,5-naphthyridin-3-yl]piperazin-2-yl]acetic acid] | 3.98 to 31.6 nM | 200 to 1260 nM |
| Fc1ccc(Cl)cc1-c1n[nH]cc1-c1ccc2ncc(NCC3CCCCN3)cc2n1 (stereo not drawn) [Compound 1-23, 6-[3-(5-chloro-2-fluoro-phenyl)-1H-pyrazol-4-yl]-N-(2-piperidylmethyl)-1,5-naphthyridin-3-amine] | 0.0398 to 0.316 nM | 25.1 to 158 nM |
| CN1CC(Nc2cnc3ccc(-c4c[nH]nc4-c4cc(Cl)ccc4F)nc3c2)C1 [Compound 1-7, 6-[3-(5-chloro-2-fluoro-phenyl)-1H-pyrazol-4-yl]-N-(1-methylazetidin-3-yl)-1,5-naphthyridin-3-amine] | 0.0398 to 0.316 nM | ≤ 20 nM |
| Fc1ccc(Cl)cc1-c1n[nH]cc1-c1ccc2ncc(NCCN3CCCC3)cc2n1 [Compound 1-14, 6-[3-(5-chloro-2-fluoro-phenyl)-1H-pyrazol-4-yl]-N-(2-pyrrolidin-1-ylethyl)-1,5-naphthyridin-3-amine] | 0.0398 to 0.316 nM | ≤ 20 nM |
| CN1CCN(CC(C)(C)Nc2cnc3ccc(-c4c[nH]nc4-c4cc(Cl)ccc4F)nc3c2)CC1 [Compound 1-9, 6-[3-(5-chloro-2-fluoro-phenyl)-1H-pyrazol-4-yl]-N-[1,1-dimethyl-2-(4-methylpiperazin-1-yl)ethyl]-1,5-naphthyridin-3-amine] | 3.98 to 31.6 nM | 200 to 1260 nM |
